Data on seven compounds can be found in patent US9585380B2, “SSAT mRNA translation repression and activation” (TEMPLE UNIVERSITY—Of The Commonwealth System of Higher …, priority 2011, dated 2017).

Experiment [1] has as its system SSAT translation. The experiment can be described thus: Reporter system: 5′ UTR lacking uORFs + SSAT coding sequence-luciferase chimeric construct in HEK293T cells. It is filed as cell-based, human. To be noted: wild-type SSAT-luciferase construct, luciferase 16 hours after addition, compared to untreated. On the procedure:
A chimeric construct (FIG. 15A) comprising a fragment of the 5′ UTR of SSAT lacking the uORF's (see FIG. 7), the SSAT coding sequence (see FIG. 8B), and the luciferase coding sequence was prepared. The SSAT coding sequence is linked in-frame to the luciferase coding sequence. The construct was prepared using appropriate primers and template nucleic acid, and conventional PCR methods. The construct was cloned into pLEX-MCS. To evaluate the effect of small molecules on translation of the chimeric construct, the chimeric construct was transiently transfected into HEK293T cells. The small molecule to be tested was added 24 hours after transfection of the vector. Luciferase activity was evaluated 16 hours after the addition of the small molecule using the ONE-Glo™ Luciferase Assay System (Promega, Madison, Wis.). The luminescence intensity was determined using a GloMax® luminometer (Promega).
In view of the discovery of the contribution of uORF's on translational repression of SSAT mRNA, a reporter system was developed to detect pharmacophores that can modulate SSAT translation. The reporter system is a chimeric construct comprising a 5′ UTR lacking the uORF's and the SSAT coding sequence linked in-frame to the luciferase coding sequence. (FIG. 15A). The 5′ UTR comprises 66 nucleotides of the native 5′UTR immediately upstream of the starting AUG codon.
Release of translational repression of the chimeric construct was tested in the presence of several small molecules. Release of translational repression was assessed by detection of luciferase activity. The small molecules tested were: DENSPM and three uncharacterized polyamine analogs designated polyamine analog 1; polyamine analog 2; and polyamine analog 3. Cisplatin and 5-FU were tested as negative controls.

The subject of the next experiment is nucleolin. As to conditions: HEK293T exposed to 2 mM spermine for 12 hours versus controls.
Experiment [2] deals with SSAT translation.
In experiment [3] the test system is SSAT translation. Briefly: Drug screening with mutant 6 SSAT-luciferase reporter construct in transfected HEK 293T cells. To be noted: Homo sapiens; 10 μM test compound, HEK 293T cells transfected with mutant 6 construct, luciferase signal twelve hours after treatment. It is filed as cell-based, human. On the procedure:
The mutant 6 chimeric construct of Example 4 (A424C; A426C; FIG. 18G) cloned into pLEX MCS plasmid was utilized in drug screening as follows. HEK 293T cells (ATCC) were grown in DMEM supplemented with 10% fetal bovine serum and antibiotics. The HEK 293T cells were transfected with the mutant 6/pLEX MCS plasmid using HTS-Jetpei transfection reagent (Polyplus Transfection, Illkirch, France). Transfected HEK293T cells were incubated overnight at 37° C. After 24 hours, cells transfected cells in 96-well plates used for screening were treated with 10 μM of test compound from a compound library in DMSO. Untreated cells were used as the negative control, and cells treated with 10 μM DENSPM comprised a positive control. The luciferase signaling in each plate was independently analyzed using a Glomax Luminometer (Promega Corp.) by comparing the signals against the controls twelve hours after treatment.
The procedure of Example 6 was followed, screening for compounds that increase SSAT translation. The agents listed in Table 11 were identified as increasing SSAT translation by at least 35% over basal SSAT translation.
In general terms: A reporter such as luciferase makes a cellular process visible.

Experiment [4] deals with SSAT translation. Briefly: DENSPM dose response curve with mutant 6 chimeric construct. The experiment is classed as cell-based, human. To be noted: mutant 6 construct, DENSPM 0.08 μM to 40 μM, HEK293T. Here is the method: The chimeric construct to be tested was transiently transfected into HEK293T cells. Twenty-four hours after transfection of the vector, DENSPM was added to the desired final concentration (ranged from 0.08 micromolar to 40 micromolar). Luciferase activity was evaluated 16 hours after the addition of DENSPM using the ONE-Glo™ Luciferase Assay System. The luminescence intensity was determined using a GloMax® luminometer (Promega). The experiment was run in triplicates to obtain error bars and evaluate reproducibility.
A dose response experiment was performed using the mutant 6 chimeric construct. Specifically, the stimulation of mutant 6 translation by ten different concentrations of DENSPM was assayed. The DENSPM concentrations ranged from 0.08 micromolar (μM) to 40 μM. The dose response curve is depicted in FIG. 20.

Counter-ions that a name gives are not always drawn.

Procedure for nucleolin: In addition, a sample of RNA-interacting proteins obtained from a Sepharose-streptomycin-chimeric RNA column described above was subjected to the same 2DE separation. The sample was initially concentrated to 30 μL using a Nanosep 3000 (Pall Corp) and dialyzed with 0.1×PBS for 12 h using a Slide-A-Lyzer 7K mini unit (Pierce Biotech). After separation by 2DE, the proteins were transferred to a nitrocellulose membrane using a Mini Trans Blot System (Biorad) and were Western blotted using anti-nucleolin monoclonal antibody.

On to `O=c1[nH]cc(F)c(=O)[nH]1` [Mutant 5-FU, 5-FU], for which the “Release of translational repression of the chimeric construct (luciferase activity)” value (shortened to “Release”) in the experiment with SSAT translation [1] was “about the same as in the absence of a small molecule”.

`NCCCNCCCCNCCCN` [spermine]: the “55 KDa nucleolin isoform (2D-PAGE Western blot)” value in the experiment on nucleolin is listed as “absent”. In addition, in the experiment on SSAT translation [2] (constructs with or without uORFs, presence of spermine), the “SSAT expression (Western blot)” value is listed as “stimulated expression”. The “Repression of eGFP expression by the SSAT stem loop (Loop eGFP, Western blot)” value with SSAT translation [2] (exogenous spermine, HEK293T) is “partially reversed”.

As for `N.N.[Cl][Pt][Cl]` [cisplatin, Cisplatin], in the experiment on SSAT translation [1], the “Release” value is listed as “about the same as in the absence of a small molecule”.

A word on the inhibition: it is the change of the read-out against control, counted positive when it falls. A high value points to a strong effect. In the experiment on SSAT translation [3], `CCCCCCCCCCCCCCCC[N+](C)(C)CCN(Cc1ccc(OC)cc1)c1ncccn1` [Thonzonium bromide, N-{2-[(4-Methoxybenzyl)(pyrimidin-2-yl)amino]ethyl}-N,N-dimethylhexadecan-1-aminium bromide] showed an inhibition at 10 µM of 99%.

As for `CCCCC(CC)CNC(=N)NC(=N)NCCCCCCNC(=N)NC(=N)NCC(CC)CCCC` (stereo not shown) [Alexidine dihydrochloride, 1,1′-Hexamethylene-bis[5-(2-ethylhexyl)biguanide] dihydrochloride], the inhibition at 10 µM with SSAT translation [3] worked out at 99.6%.

For `CCCCCCCCN[C@H](C)[C@@H](O)c1ccc(SC(C)C)cc1` (relative stereo) [Suloctidil, (R*,S*)-4-((1-methylethyl)thio)-alpha-(1-(octylamino)ethyl)benzene-methanol], in the experiment with SSAT translation [3], 10 µM produced 99.9% inhibition.

Turning to `CCNCCCNCCCNCCCNCC` [DENSPM, N^1-N^11 diethylnorspermine], the “Release” value in the experiment on SSAT translation [1] is recorded as “relieved”. Also, in the experiment with SSAT translation [4], the “Dose dependency of stimulation of translation of SSAT mRNA having CGC encoding Arg142” value is “dose dependency over at least two orders of magnitude”.
